PMC11385693, “Synthesis of ferrocenyl benzimidazole derivatives as novel anti-Toxoplasma gondii agents” (New Journal of Chemistry, 2024)
Where “and” joins values, the source holds several entries; their conditions need not be identical. Equal entries are not always repeated.

Key:
[1] = Turbidimetric solubility assay
Experimental: A single phosphate buffered saline (PBS) tablet (Sigma Aldrich) was dissolved in 200 mL of distilled water (dH2O) (25 °C) to obtain a PBS solution with 0.01 M phosphate buffer, 0.14 M NaCl and 0.003 M KCl.
Stock solutions of the compounds to be tested were prepared in DMSO at a concentration of 10 mM and filtered through syringe filters. Serial dilution of the stock solutions with DMSO was then carried out in a preparatory (prep) 96-well plate giving concentrations between 0.00 and 10.0 mM (0.00, 0.25, 0.50, 1.0, 2.0, 4.0, 8.0 and 10 mM). The solutions were then further diluted into 96-well assay plates containing DMSO, PBS or HEPES buffer by pipetting 4.00 μL of solution from the prep plate to the Assay plate containing 196 μL of DMSO or buffer, giving final concentrations between 0.00 and 200 μM (0.00, 5.00, 10.0, 20.0, 40.0, 80.0, 160 and 200 μM). The assay plates were incubated at 25.0 or 37.0 °C for two hours before their UV-vis absorbance was read at 620 nm with a SPECTROstar Nano microplate reader spectrophotometer. Blank readings were used to gain corrected readings by subtracting them from obtained absorbances for each compound concentration.

Cyclic voltammetry = type: physicochemical
Excerpt: Ferrocene is known to undergo reversible oxidation and reduction, cycling between its 3^+ ferrocenium and the 2^+ ferrocene (Fc) states.[49,50] This redox behaviour leads to the generation of reactive oxygen species (ROS) through Fenton like reactions, which can in turn lead to parasite death.[51–53] Cyclic voltammetry was used to determine if the synthesised ferrocenyl derivatives had the potential to have an impact on the redox status of the parasite cells. Two different scan rates (25 and 90 mV s^−1) were used to ensure the reliability of the results, compared to ferrocene alone.

[2] = tested on: RhΔKu80:mNeonGreen strain of T. gondii; experiment: microbe, parasite or virus in culture; type: cell-based, Toxoplasma gondii; details: T. gondii ΔKu80:mNeon in HFFs, 4 days, highest concentration 100 μM; NA = not active at the maximum tested concentration; three biological replicates in triplicate; read-out: EC50
Experimental: Growth inhibition assays were carried out using the RhΔKu80:mNeonGreen strain of T. gondii, which expresses the mNeonGreen fluorescent protein.[56] Parasite growth inhibition was determined by measuring the fluorescence emission of parasite growth in increasing concentrations of compounds of interest.
T. gondii ΔKu80:mNeon tachyzoites were grown in human foreskin fibroblasts (HFFs) with Dulbecco's modified Eagle's medium (DMEM) supplemented with 3% heat inactivated foetal bovine serum (D3) as the culturing medium. Cells and parasites were maintained at 37 °C and 5% carbon dioxide (CO2).
EC50s were calculated as previously described.[56] Briefly, T. gondii ΔKu80:mNeon parasites were counted by haemocytometer and diluted to 25 000 parasites per mL in 40 mL of D3 media, to give an infection of 5000 parasites per well. The media from a black clear bottomed 96 well plate containing HFFs was then aspirated. 200 μL of uninfected D3 media was added to the top and bottom rows of wells (A and H) to serve as blanks. 200 μL of T. gondii containing D3 media was then added to the remaining wells. The parasites were allowed 2 hours to invade host cells, after which test compounds were added.
The media from the infected 96 well plates was then aspirated and 100 μL of D3 media added to each well, excluding column 12. The first 4 wells of column 12 were filled with 300 μL of drug supplemented D3 media, while the next 4 wells were filled with 300 μL of D3 media supplemented with a different drug. The drug supplemented D3 media was then serially diluted 1 : 3 across the plate, stopping at column 2 and disposing of the media, leaving all wells with 100 μL of media. Finally, the plates were closed and incubated at 37 °C with 5% CO2 for 4 days. After 4 days the fluorescence of each well on the plates was read at 594 nm emission using a PHERAstar FS microplate reader. Graphpad Prism 9 software was used to plot dose–response and determine inhibition of parasite growth.

HEK293T cell line = details: 25 μM, MTT 48 hours
Experimental: Human prostatic epithelial cells (PNT1A) were cultured in Rosewell Park Memorial Institute (RPMI) media supplemented with 10% heat inactivated FBS. Both cell lines were incubated at 37 °C with 5% CO2. Both cell lines were obtained from ATCC.
The cells were allowed to recover overnight before the addition of compounds.
Stock solutions of the test compounds in DMSO were prepared and serially diluted in DMSO in a 96 well plate. […] 10 μL of the test compounds in media was then pipetted into the plates containing cells in triplicate. The cells were then incubated with the test compounds for 48 hours. After incubation, 10 μL of previously prepared MTT reagent was added to each well followed by incubation of the plates for 4 hours. 100 μL of solubilising agent was then pipetted into each well, and the plates incubated overnight. After overnight incubation the plates were read using a BioTek SYNERGY HTX multimode plate reader at 595 nm. Graphpad Prism 9 software was used to plot dose–response and determine cell viability.

T. gondii = experiment: Fluorescence microscopy of infected cells; type: cell-based, Toxoplasma gondii; details: 50 μM
Experimental: To visualise the impact of the target compounds on the parasites, fluorescence microscopy was performed. Compound 17 was used as a representative for the two active compounds and was incubated with infected cells at a concentration of 50 μM for 24 and 48 hours. Fluorescence microscopy images were obtained at each of the timepoints (Fig. 5).
A 24 well plate of HFF host cells grown on cover slips was infected with 100 μL of parasites per well and incubated at 37 °C for 1 h. The media in the wells was aspirated and replaced with media containing 50 μM of 17 The plate was once again incubated for 24 or 48 h at 37 °C. Once incubation was complete, the cells were washed once with PBS, before fixation with 500 μL of 4% paraformaldehyde (PFA) at room temperature for 20 minutes. Cells were washed and 500 μL of blocking buffer (2% bovine serum albumin (BSA) in mL PBST (PBS, 0.2% Triton x-100 solution) and incubated for 20 min at room temperature. The cover slips were then carefully removed from each well, mounted using Fluoromount with DAPI (Southern Biotech), and placed facing down on a microscope slide. Images were obtained using a Leica DiM8 (Leica Microsystems) microscope and processed and deconvolved using SoftWoRx and FIJI software.

O=C(NCCn1cnc2cccnc21)[c-]1cccc1.[Fe+2].c1cc[cH-]c1 [Compound 17]
Solubility range ([1]; HEPES (pH 7.0), 25 °C): 20-40 µM and 7-15 µg/mL
Solubility class ([1]; HEPES (pH 7.0), 37 °C): poor (solubility <10 μg mL^−1 are considered to have poor solubility)
Solubility range ([1]; HEPES (pH 7.0), 37 °C): 0-5 µM and 0–2 µg/mL
Solubility range ([1]; PBS (pH7.4), 25 °C): 0-5 µM and 0-2 µg/mL
Solubility range ([1]; PBS (pH7.4), 37 °C): 5-10 µM and 2-4 µg/mL
E 1/2 (Cyclic voltammetry; Run1, scan rate 25 mV s^−1): 620 mV
ΔEp (Cyclic voltammetry; Run1, scan rate 25 mV s^−1): 79 mV
E 1/2 (Cyclic voltammetry; Run2, scan rate 90 mV s^−1): 618 mV
ΔEp (Cyclic voltammetry; Run2, scan rate 90 mV s^−1): 68 mV
EC50 [2]: 17.5 µM
Cell survival / % cell viability (HEK293T cell line): 70%
Parasite plasma membrane integrity (fluorescence microscopy) (T. gondii; 24 hours, leakage of fluorescent protein): damaged plasma membranes
Daughter cell division of parasites that continued to grow (fluorescence microscopy) (T. gondii; 48 hours): abnormal daughter cell division
